The source of these data is US9452990B2, “Complement pathway modulators and uses thereof” (NOVARTIS AG, priority 2012, dated 2016).

Where a name gives a salt, the structure may show the parent alone.

The target of the first assay is human complement factor B (CVF-Bb complex) (Homo sapiens (Human), UniProt P00751). Description: Human Complement Factor B ELISA Assay. Format: biochemical.
Details: not given
Here is the method: Human Complement Factor B ELISA Assay
CVF-Bb complex prepared from purified cobra venom factor (1 μM), recombinant human complement factor B (expressed in drosophila cells and purified using standard methods) and human complement factor D (expressed in E. Coli, refolded and purified using standard methods). CVF-Bb complex at 3 nM concentration was incubated with test compound at various concentrations for 1 hour at room temperature in PBS pH 7.4 containing 10 mM MgCl2 and 0.05% (w/v) CHAPS. Human complement C3 substrate purified from plasma was added to a final concentration of 1 μM. After 1 hour incubation at room temperature, the enzyme reaction was stopped by addition of a cocktail of concentrated pan-protease inhibitors. The product of the reaction, C3a, was quantified by means of an enzyme-linked-immunosorbent assay. IC50 values were calculated from percentage of inhibition of CVF-Bb activity as a function of test compound concentration.
On the technique in general: In an ELISA, binding on a coated surface is turned into a signal by an enzyme label.
In the case of `COc1cc2c(N)nc(N3CCN(C(=O)C[C@@H](N)c4ccc(Br)cc4)CC3)nc2c(F)c1OC` [Example 49, (R)-3-Amino-1-[4-(4-amino-8-fluoro-6,7-dimethoxy-quinazolin-2-yl)-piperazin-1-yl]-3-(4-bromo-phenyl)-propan-1-one hydrochloride], the IC50 (usually the concentration that inhibits the measured activity by half) was 60 nM. On the same count and under the same terms, next, `COc1cc2c(N)nc(N3CCN(C(=O)C[C@@H](N)c4ccc(F)cc4)C[C@@H]3c3ccccc3)nc2c(F)c1OC` [Example 69, (R)-3-Amino-1-[(S)-4-(4-amino-8-fluoro-6,7-dimethoxy-quinazolin-2-yl)-3-phenyl-piperazin-1-yl]-3-(4-fluoro-phenyl)-propan-1-one hydrochloride]: 7 nM. With `COc1cc2c(N)nc(N3CCN(C(=O)C[C@@H](N)c4ccc(C(F)F)cc4)CC3)nc2c(F)c1OC` [Example 53, (R)-3-Amino-1-[4-(4-amino-8-fluoro-6,7-dimethoxy-quinazolin-2-yl)piperazin-1-yl]-3-(4-difluoromethyl-phenyl)-propan-1-one hydrochloride], the midpoint of inhibition, the IC50, lay at 50 nM. Still for that read-out and setting: next, `COc1cc2c(N)nc(N3CCN(C(=O)C[C@@H](N)c4ccc(F)c(F)c4)CC3)nc2c(F)c1OC` [Example 51, (R)-3-Amino-1-[4-(4-amino-8-fluoro-6,7-dimethoxy-quinazolin-2-yl)piperazin-1-yl]-3-(3,4-difluoro-phenyl)-propan-1-one hydrochloride]: 180 nM; `COc1cc2c(N)nc(N3CCN(C(=O)C[C@@H](N)c4ccc(F)cc4F)CC3)nc2c(F)c1OC` [Example 50, (R)-3-Amino-1-[4-(4-amino-8-fluoro-6,7-dimethoxy-quinazolin-2-yl)-piperazin-1-yl]-3-(2,4-difluoro-phenyl)-propan-1-one hydrochloride]: 450 nM. In turn, `COc1cc2c(N)nc(N3CCN(C(=O)C[C@@H](N)Cc4ccccc4)C[C@@H]3C)nc2c(F)c1OC` [Example 62, (S)-3-Amino-1-[(S)-4-(4-amino-8-fluoro-6,7-dimethoxy-quinazolin-2-yl)-3-methyl-piperazin-1-yl]-4-phenyl-butan-1-one hydrochloride] came in with an IC50 of 2250 nM.

Staying with this assay, now noted: CVF-Bb complex 3 nM, 1 hour preincubation with compound at room temperature, human C3 substrate 1 μM, C3a quantified by ELISA; read-out: Factor B IC50.
With `COc1cc2c(N)nc(N3CCN(C(=O)c4cc5cc(F)cc(F)c5[nH]4)CC3)nc2c(F)c1OC` [Example 22, [4-(4-Amino-8-fluoro-6,7-dimethoxy-quinazolin-2-yl)-piperazin-1-yl]-(5,7-difluoro-1H-indol-2-yl)-methanone], the IC50 is 17 nM. Take `C#CC[C@H](N)CC(=O)N1CCN(c2nc(N)c3cc(OC)c(OC)c(F)c3n2)CC1` [Example 31, (S)-3-Amino-1-[4-(4-amino-8-fluoro-6,7-dimethoxy-quinazolin-2-yl)-piperazin-1-yl]-hex-5-yn-1-one]: the IC50 turned out to be 1040 nM. With `[2H]C([2H])([2H])C([2H])([2H])N[C@H](CC(=O)N1CCN(c2nc(N)c3cc(OC)c(OC)c(F)c3n2)CC1)c1ccc(F)cc1` [Example 131, (R)-1-(4-(4-amino-8-fluoro-6,7-dimethoxyquinazolin-2-yl)piperazin-1-yl)-3-(1,1,2,2,2-d^5 ethylamino)-3-(4-fluorophenyl)propan-1-one], the IC50 was determined as 3 nM. Consider `CCCN[C@H](CC(=O)N1CCN(c2nc(N)c3cc(OC)c(OC)c(F)c3n2)CC1)c1ccc(Cl)s1` [Example 92, (R)-1-(4-(4-amino-8-fluoro-6,7-dimethoxyquinazolin-2-yl)piperazin-1-yl)-3-(5-chlorothiophen-2-yl)-3-(propylamino)propan-1-one], for which the IC50 was 8 nM. Regarding `COc1cc2c(N)nc(N3CCN(C(=O)C[C@@H](NCC4(C)COC4)c4ccc(C#N)cc4)CC3)nc2c(F)c1OC` [Example 102], the IC50 is 1 nM. On the same count and under the same terms, the result for `CCC[C@H]1CN(C(=O)/C=C/c2ccc(C#N)cc2)CCN1c1nc(N)c2cc(OC)c(OC)c(F)c2n1` [Example 9, 4-{(E)-3-[(S)-4-(4-Amino-8-fluoro-6,7-dimethoxy-quinazolin-2-yl)-3-propyl-piperazin-1-yl]-3-oxo-propenyl}-benzonitrile] reads 20 nM. Still for that read-out and setting: the result for `COc1cc2c(N)nc(N3CCN(C(=O)c4cc5cc(C#N)ccc5[nH]4)C[C@@H]3c3ccccc3)nc2c(F)c1OC` [Example 28, 2-[(S)-4-(4-Amino-8-fluoro-6,7-dimethoxy-quinazolin-2-yl)-3-phenyl-piperazine-1-carbonyl]-1H-indole-5-carbonitrile] reads 5 nM.

For `COCCCN[C@H](CC(=O)N1CCN(c2nc(N)c3cc(OC)c(OC)c(F)c3n2)CC1)c1ccc(F)cc1` [Example 94, (R)-1-(4-(4-amino-8-fluoro-6,7-dimethoxyquinazolin-2-yl)piperazin-1-yl)-3-(4-fluorophenyl)-3-(3-methoxypropylamino)propan-1-one], the IC50 is 6 nM. On the same count and under the same terms, the result for `COc1cc2c(N)nc(N3CCN(C(=O)C[C@@H]4CCN4)CC3)nc2c(F)c1OC` [Example 109, 1-[4-(4-Amino-8-fluoro-6,7-dimethoxy-quinazolin-2-yl)-piperazin-1-yl]-2-(S)-azetidin-2-yl-ethanone] reads 4270 nM. For the compound `COc1cc2c(N)nc(N3CCN(C(=O)C[C@@H](N)c4ccccc4)CC3)nc2c(C#N)c1OC` [Example 75, 4-Amino-2-[4-((R)-3-amino-3-phenyl-propionyl)-piperazin-1-yl]-6,7-dimethoxy-quinazoline-8-carbonitrile], the IC50 turned out to be 760 nM. On the same count and under the same terms, next, `COc1cc2c(N)nc(N3CCN(C(=O)C[C@@H](N)c4ccsc4)CC3)nc2c(F)c1OC` [Example 37, (R)-3-Amino-1-[4-(4-amino-8-fluoro-6,7-dimethoxy-quinazolin-2-yl)-piperazin-1-yl]-3-thiophen-3-yl-propan-1-one]: 40 nM; `CCC[C@H]1CN(C(=O)c2cc3cc(F)ccc3[nH]2)CCN1c1nc(N)c2cc(OC)c(OC)c(F)c2n1` [Example 27, [(S)-4-(4-Amino-8-fluoro-6,7-dimethoxy-quinazolin-2-yl)-3-propyl-piperazin-1-yl]-(5-fluoro-1H-indol-2-yl)-methanone]: 280 nM; `COc1cc2c(N)nc(N3CCN(C(=O)C[C@@H]4CCCN4)CC3)nc2c(F)c1OC` [Example 110, 1-[4-(4-Amino-8-fluoro-6,7-dimethoxy-quinazolin-2-yl)-piperazin-1-yl]-2-(S)-pyrrolidin-2-yl-ethanone]: 140 nM.

Regarding `COc1cc2c(N)nc(N3CCN(C(=O)C[C@@H](NC(CF)CF)c4ccc(F)cc4)CC3)nc2c(F)c1OC` [Example 87, (R)-1-(4-(4-amino-8-fluoro-6,7-dimethoxyquinazolin-2-yl)piperazin-1-yl)-3-(1,3-difluoropropan-2-ylamino)-3-(4-fluorophenyl)propan-1-one], the IC50 was determined as 40 nM. As to `CCC[C@H]1CN(C(=O)C[C@@H]2CCCN2)CCN1c1nc(N)c2cc(OC)c(OC)c(F)c2n1` [Example 118, 1-[(S)-4-(4-Amino-8-fluoro-6,7-dimethoxy-quinazolin-2-yl)-3-propyl-piperazin-1-yl]-2-(S)-pyrrolidin-2-yl-ethanone], the IC50 came to 270 nM. Take `CC[C@H]1CN(C(=O)C[C@@H]2CCCCN2)CCN1c1nc(N)c2cc(OC)c(OC)c(F)c2n1` [Example 117, 1-[(S)-4-(4-Amino-8-fluoro-6,7-dimethoxy-quinazolin-2-yl)-3-ethyl-piperazin-1-yl]-2-(S)-piperidin-2-yl-ethanone]: the IC50 was 780 nM. For `COc1cc2c(N)nc(N3CCN(C(=O)C[C@@H]4CCCCN4)CC3)nc2c(C#N)c1OC` [Example 126, (S)-4-Amino-6,7-dimethoxy-2-(4-(2-(piperidin-2-yl)acetyl)piperazin-1-yl)quinazoline-8-carbonitrile], the IC50 was 2900 nM.

On to `COc1cc2c(N)nc(N3[C@H](C)CN(C(=O)C[C@@H](NC(C)C)c4ccc(C#N)cc4)C[C@@H]3C)nc2c(F)c1OC` [Example 97, 4-((R)-3-((3R,5S)-4-(4-amino-8-fluoro-6,7-dimethoxyquinazolin-2-yl)-3,5-dimethylpiperazin-1-yl)-1-(isopropylamino)-3-oxopropyl)benzonitrile], for which the IC50 was found to be 11 nM.

Take `COc1cc2c(N)nc(N3CCN(C(=O)C[C@H](c4ccccc4)N(C)C)CC3)nc2c(F)c1OC` [Example 85, (R)-1-[4-(4-Amino-8-fluoro-6,7-dimethoxy-quinazolin-2-yl)-piperazin-1-yl]-3-dimethylamino-3-phenyl-propan-1-one]: the IC50 stood at 80 nM. Same read-out and setting: next, `COc1cc2c(N)nc(N3CCN(C(=O)/C=C/c4ccc(F)cc4)CC3)nc2c(Cl)c1OC` [Example 16, (E)-1-(4-(4-Amino-8-chloro-6,7-dimethoxyquinazolin-2-yl)piperazin-1-yl)-3-(4-fluorophenyl)prop-2-en-1-one]: 1440 nM; `COc1cc2c(N)nc(N3CCN(C(=O)c4cc5cc(F)ccc5[nH]4)C[C@@H]3C)nc2c(F)c1OC` [Example 24, [(S)-4-(4-Amino-8-fluoro-6,7-dimethoxy-quinazolin-2-yl)-3-methyl-piperazin-1-yl]-(5-fluoro-1H-indol-2-yl)-methanone]: 90 nM. Same read-out and setting: the result for `COc1cc2c(N)nc(N3CCN(C(=O)c4cc5ccccc5[nH]4)CC3)nc2c(F)c1OC` [Example 17, [4-(4-Amino-8-fluoro-6,7-dimethoxy-quinazolin-2-yl)-piperazin-1-yl]-(1H-indol-2-yl)-methanone] reads 340 nM; that for `COc1cc2c(N)nc(N3CCN(C(=O)c4cc5cc(C#N)ccc5[nH]4)C[C@@H]3C)nc2c(F)c1OC` [Example 23, 2-[(S)-4-(4-Amino-8-fluoro-6,7-dimethoxy-quinazolin-2-yl)-3-methyl-piperazine-1-carbonyl]-1H-indole-5-carbonitrile], 15 nM.
